Measured values published in patent US7144733B2, “Bio-synthetic photostimulators and methods of use” (Sloan-Kettering Institute for Cancer Research, priority 2001, dated 2006).
Entries after “also recorded” stand apart in the source; their conditions may differ.

Assays:
hippocampal neurons = assay: Photostimulation of chARGed hippocampal neurons in primary culture, whole-cell current clamp; assay type: cell-based; conditions: 50 μM AP-5 plus 10 μM CNQX together; n=5 neurons
Method: (§1) Synthetic all-trans retinal (Sigma) was diluted, from a 100-mM stock in DMSO, to 40 μM in the appropriate extracellular recording solution (see below) and allowed to bind to NinaE for 15 min in the dark. A mechanically shuttered (Uniblitz, Vincent Associates) Lambda DG-4 rapid wavelength changer (Sutter Instruments) delivered <2 mW of stimulating light without ultraviolet and infrared (E400LP, Chroma; Hot Mirror, Newport) components through 20×/0.4 (oocytes) or 40×/0.8 W (neurons) Zeiss Achroplan objectives. In some experiments, a short pre-illumination with red light (E600LP plus HQ625/40, both from Chroma) preceded the white-light stimulus. Light source and shutter were controlled through pClamp 8.0 (Axon Instruments) and MetaFluor 4.5 (Universal Imaging).
Hippocampal neurons obtained from E19 rats were grown in dissociated cultures (Yuste, Miller et al. “Synapto-pHluorins: chimeras between pH-sensitive mutants of green fluorescent protein and synaptic vesicle membrane proteins as reporters of neurotransmitter release,” Methods Enzymol 522–46 (2000)) and transfected with a calcium phosphate precipitate (pH 7.08) formed from a 1:1 mixture of CsCl-banded pChARGe-1 and pChARGe-2. Neurons were exposed to 4.2 μg/cm^2 of precipitated DNA for 20 minutes. Transfections were done on day 8 after plating, recordings on days 6–10 after transfection. Neurons were identified under DIC and epifluorescence illumination (to distinguish transfected from untransfected cells; FIG. 3) and placed under whole-cell current clamp before reconstitution of NinaE with retinal. Patch pipettes (˜2.5 MΩ) contained, in mM, 120 K-gluconate, 10 KCl, 5 ATP, 0.3 GTP, and 10 K-HEPES, pH 7.2. The extracellular recording solution contained, in mM, 119 NaCl, 2.5 KCl, 2 CaCl2, 1 MgCl2, 30 glucose, 25 Na-HEPES, pH 7.4. Membrane potentials were recorded with an Axoclamp-2B amplifier (Axon Instruments) in bridge mode and digitized at 5 kHz (Digidata 1200, Axon Instruments).
For intracellular recordings of light-evoked electrical activity, neurons were placed under whole-cell current clamp before reconstitution of NinaE with retinal. […] Exposure to white light increased the frequency of action potentials dramatically (FIGS. 4, A–D, and FIG. 5). Peak firing frequencies of 7.5 Hz (evaluated in sliding 2-s windows), equal to those generated by the direct injection of 200–250 pA of sustained depolarizing current into transfected and untransfected neurons, appeared after latency periods of a few hundred ms to several tens of s (n=18 neurons). […]

Xenopus oocytes = assay: Light-evoked photocurrents in voltage-clamped Xenopus oocytes expressing Drosophila phototransduction proteins; assay type: cell-based
Method: as §1
Stage VI oocytes were microinjected with the specified mRNA mixtures, which were adjusted to keep the doses of individual messages constant at 2–4 fmol/oocyte. Photocurrents were recorded at −80 mV with a two-electrode voltage-clamp amplifier (Axoclamp-2B, Axon Instruments) 2–4 days after mRNA injection. Electrodes (2–3 MΩ) were filled with 3 M KCl; the extracellular recording solution (Barth's Saline) contained, in mM, 87.5 NaCl, 2 KCl, 2.4 NaHCO3, 2 CaCl2, 1 MgCl2, 5 Tris-HCl, pH 7.2. Signals were externally amplified (CyberAmp 380, Axon Instruments) before digitization at 100 Hz (Digidata 1200, Axon Instruments). To block IP3-sensitive Ca^2+ stores where indicated, 20 μM xestospongin C (Gafni et al., 1997; Calbiochem) was present throughout the experiment, beginning with the retinal load.
Unliganded NinaE in the membrane of voltage-clamped oocytes was reconstituted in the dark with 40 μM synthetic all-trans retinal, to form a metarhodopsin-like intermediate that could be further photoconverted (Hillman et al., 1983; Kiselev and Subramaniam, 1994; Ranganathan and Stevens, 1995) to rhodopsin. […]

Row | Compound | EPSPs in the membrane potential record under glutamate receptor block (hippocampal neurons) | light-induced action potentials under glutamate receptor block (hippocampal neurons) | light-evoked current responses in the presence of xestospongin C (Xenopus oocytes; 20 μM xestospongin C present throughout, oocytes expressing 10 photoreceptor proteins, n=5 oocytes) | dependence of light-evoked current responses on reconstitution of NinaE with retinal (Xenopus oocytes; 40 μM all-trans retinal, 15 min in the dark, n=9 oocytes) | photocurrent over time after a single retinal load, in the absence of exogenous retinal (Xenopus oocytes; NinaE reconstituted with 40 μM all-trans retinal for 15 min, then retinal-free perfusion for hours, n=8 oocytes)
1 | NC(CCCP(=O)(O)O)C(=O)O (racemic) [AP-5, D,L-2-amino-5-phosphonovaleric acid] | vanished; also recorded: elimination | persisted | – | – | –
2 | N#Cc1cc2c(cc1[N+](=O)[O-])=NC(=O)C(=O)N=2 [CNQX, 6-cyano-7-nitroquinoxaline-2,3-dione] | vanished; also recorded: elimination | persisted | – | – | –
3 | C1CCC[C@H]2CCCN3CC[C@@H](CCCCCC[C@@H]4CCCN5CC[C@@H](CC1)O[C@@H]45)O[C@@H]23 [xestospongin C] | – | – | inhibited | – | –
4 | CC1=C(/C=C/C(C)=C/C=C/C(C)=C/C=O)C(C)(C)CCC1 [all-trans retinal] | – | – | – | required | no attenuation
